Assay results taken from patent US5532236A, “[1,2,4]triazolo[4,3-a]quinoxaline compounds” (priority 1993, dated 1996).
Values belong to the molecule of their own block, whether it stands above or below them.

Assays:
[1] = tested on: quisqualic acid stimulated spreading depression in chicken retina; experiment: Spreading depression (Test 2): antagonism of quisqualic acid stimulated spreading depression in chicken retina; assay type: cell-based; conditions: Gallus gallus, 0.25 h, quisqualate 1 μg/ml, 26° C., 15 min incubation with test compound, read-out: TEST 2 IC50 (50% maximal inhibition of quisqualic acid stimulated spreading depression)
Description: The influence of glutamic acid analogues on secondary effects of glutamate receptor interactions may be studied in vitro by using the phenomenon of spreading depression in chicken retina. Such experiments will provide information as to the efficacies (agonist/antagonist) of the test substances. This is in contrast to binding studies, which only provide information on the affinities of the compounds for the receptor.
The pharmacological properties of the compounds of the present invention can be illustrated by determining their capability for displacing radioactively labelled 2-amino-3-hydroxy-5-methyl-4-isoxazolepropionic acid (AMPA) from the AMPA type receptors. […]
The eyes were initially incubated in normal P.S.S. for 15-30 min. and then transferred to P.S.S. containing quisqualate (1 μg/ml). […] The time taken for an S.D. to start in each eye was measured.
After a further 15 min. of incubation in normal P.S.S. the eyes were transferred to normal P.S.S. containing the test compound and incubated for 15 min. […] The time taken for an S.D. to start in each eye was measured again. The eyes were then placed back in normal P.S.S. and after 15 min. the time taken for S.D. to start was measured again, in order to assess the degree of recovery from any drug effects. […]

[2] = molecular target: AMPA type receptors; experiment: 3H-AMPA binding (Test 1); conditions: rat cerebral cortical membrane homogenate; 5 nM 3H-AMPA; pH 7.1; 0° C., 30 min; read-out: TEST 1 IC50 (displacement of 50% of the specific binding of 3H-AMPA)
Description: AMPA receptor binding may be studied by using ^3 H-AMPA as radioligand.
The pharmacological properties of the compounds of the present invention can be illustrated by determining their capability for displacing radioactively labelled 2-amino-3-hydroxy-5-methyl-4-isoxazolepropionic acid (AMPA) from the AMPA type receptors.
The displacement activity of the compounds may be shown by determining the IC50 value which represents the concentration (μM) which causes a displacement of 50% of the specific binding of ^3 H-AMPA.
^3 H-AMPA binding (Test 1)
500 μl of thawed rat cerebral cortical membrane homogenate in Tris-HCl (30 mM), CaCl2 (2.5 mM) and KSCN (100 mM) pH 7.1 were incubated at 0° C. for 30 min. with 25 μl ^3 H-AMPA (5 nM final concentration) and the test compound and buffer. Nonspecific binding was determined by incubation with L-glutamic acid (600 μM final concentration). The binding reaction was terminated by adding 5 ml of ice-cold buffer followed by filtration through Whatman GF/C glass fibre filters and 2×5 ml wash with ice-cold buffer. Bound radioactivity was measured by scintillation counting. IC50 was determined by Hill analysis of at least four concentrations of test compound.

[3] = tested on: AMPA receptors; conditions: cited from earlier work
[4] = tested on: NMDA (N-methyl-D-aspartate) receptors; conditions: cited from earlier work
[5] = tested on: kainate receptors; conditions: cited from earlier work

- IC50 [1]: 3.9 µM
- IC50 [2]: 0.18 µM
Structure (SMILES): O=c1[nH]c2cc(-n3ccnc3)ccc2n2c(=O)[nH]nc12 [Example 1, 7-(1H-Imidazol-1-yl)[1,2,4]triazolo[4,3-a]quinoxaline-1,4(2H,5H)-dione]

Structure (SMILES): N[C@@H](CCC(=O)O)C(=O)O [L-glutamic acid]
- agonist activity at AMPA receptors [3]: potent agonists

Structure (SMILES): N[C@@H](CCS(=O)(=O)O)C(=O)O [L-homocysteic acid]
- agonist activity on NMDA receptors [4]: strong to moderate agonist activity

Structure (SMILES): N[C@@H](Cn1oc(=O)[nH]c1=O)C(=O)O [quisqualic acid]
- agonist activity at AMPA receptors [3]: potent agonists

Structure (SMILES): O=C(O)[C@@H]1CCCN[C@H]1C(=O)O (relative stereo) [trans-2,3-PDA, trans-2,3-piperidine dicarboxylic acid]
- agonist activity on NMDA receptors [4]: strong to moderate agonist activity

Structure (SMILES): Cc1onc(O)c1CC(N)C(=O)O (stereo not drawn) [AMPA, 2-amino-3-hydroxy-5-methyl-4-isoxazolepropionic acid]
- agonist activity at AMPA receptors [3]: activated selectively

Structure (SMILES): N[C@H](C(=O)O)c1cc(=O)[nH]o1 [Ibotenic acid]
- agonist activity on NMDA receptors [4]: strong to moderate agonist activity

Structure (SMILES): N[C@H](CCC[C@H](N)C(=O)O)C(=O)O [diaminopimelic acid]
- antagonist activity at NMDA receptors [4]: moderate antagonist activity

Structure (SMILES): N[C@H](CCCP(=O)(O)O)C(=O)O [D-APV, 2-amino-5-phosphono-valeric acid]
- antagonist activity at NMDA receptors [4]: most potent and selective antagonists

- IC50 [1]: 4.8 µM
- IC50 [2]: 1.7 µM
Structure (SMILES): O=c1[nH]c2cc(-n3ccnc3)c(C(F)(F)F)cc2n2c(=O)[nH]nc12 [Example 2, 7-(1H-Imidazol-1-yl)-8-trifluoromethyl[1,2,4]triazolo[4,3-a]quinoxaline-1,4(2H,5H)-dione]

Structure (SMILES): N[C@@H](CCC(=O)NCC(=O)O)C(=O)O [3-glutamyl-glycine]
- antagonism / selectivity at kainate receptors ([5]; O. Goldberg et al. 1981): some selectivity for kainate receptors

Structure (SMILES): N[C@H](CCCC(=O)O)C(=O)O [D-2-amino-adipic acid]
- antagonist activity at NMDA receptors [4]: moderate antagonist activity

Structure (SMILES): CCOC(=O)CC[C@H](N)C(=O)OCC [GDEE, Glutamic acid diethyl ester]
- sensitivity of excitatory responses to kainic acid to antagonism [5]: relatively insensitive
- antagonist activity at AMPA receptors [3]: selective but very weak antagonist

Structure (SMILES): O=C(O)C1CN(CCCP(=O)(O)O)CCN1 (racemic) [CPP, 3-[(±)-2-carboxy-piperazin-4-yl]-propyl-1-phosphonic acid]
- antagonist activity at NMDA receptors [4]: most potent and selective antagonists

Structure (SMILES): N[C@H](CCC(=O)O)C(=O)O [D-glutamic acid]
- agonist activity on NMDA receptors [4]: strong to moderate agonist activity
